Measurements taken from paper PMC7822874, “Chemoprotective antimalarials identified through quantitative high-throughput screening of Plasmodium blood and liver stage parasites” (Scientific Reports, 2021).
Like-named read-outs stand apart in the source and are kept apart here. Blank lines part the entries; values can stand above or below the molecule they belong to.

Columns and labels:
[1] = target: Firefly luciferase (Fluc, EC 1.13.12.7) (Photinus pyralis, UniProt P08659); assay: biochemical; parameters: single determination (the paper says generally: 'qHTS assays were performed in a single replicate with a 7- to 11-point dose response format'; it is not stated for this counterscreen itself)
in vitro [2] = conditions: human, HepG2 cells; n = 1
[3] = test system: Plasmodium falciparum Dd2 asexual blood stage parasites; assay: microbe, parasite or virus in culture; parameters: species or system Plasmodium falciparum Dd2 in human erythrocytes; single determination (one 11-point concentration-response curve); conditions: Plasmodium falciparum, DD2, Erythrocyte, 72 h; read-out: AC50
in vitro [4] = conditions: human, HepG2-A16-CD81EGFP cells, uninfected
[5] = test system: luciferase-expressing P. berghei liver stage parasites in HepG2 cells; assay: Inhibition of liver-stage development assay (ILSDA), Method 2 (WRAIR, 96-well); format: cell-based, Plasmodium berghei; conditions: for AC50: Plasmodium berghei, HepG2, Method 2
in vitro [6] = conditions: human, hepg2 cells
HepG2 = conditions: human, hepg2 cells, 48 h
[7] = test system: P. falciparum Dd2 Cytb V259L; assay: SYBR Green ABS proliferation assay, NCGC00473217 selected clone F06; format: cell-based, Plasmodium falciparum; conditions: Plasmodium falciparum, DD2, NCGC00473217 selected clone F06; read-out: AC50 [μM], Cytb V259L (converted)
Procedure, shortened: (§1)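 Asexual blood-stage proliferation of cytochrome b-mutant Dd2 clones after 72 h compound exposure at 37 °C in low-oxygen gas, quantified as control-normalized SYBR Green-I fluorescence; differences tested by two-sided t-test.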

[8] = test system: P. falciparum Dd2 Cytb A122D; assay: SYBR Green ABS proliferation assay, NCGC00473217 selected clone F12; format: cell-based, Plasmodium falciparum; conditions: Plasmodium falciparum, DD2, NCGC00473217 selected clone F12; read-out: AC50 [μM], Cytb A122D (converted)
Procedure, shortened: as §1

Aqueous solubility = format: physicochemical; conditions: aqueous media
Method: (§2) Pharmacokinetic modeling experiments, parallel artificial membrane permeability assay (PAMPA), solubility, and rat liver microsome stability assessment were performed on all synthetic compounds, as previously described[73]–[75].

[9] = test system: P. falciparum Dd2 (clone B2) asexual blood stage parasites; assay: P. falciparum Dd2 asexual blood stage SYBR Green-I 72 h proliferation assay (qHTS); format: cell-based, Plasmodium falciparum; conditions: Plasmodium falciparum, DD2, 72 h, SYBR Green 72 h
[10] = test system: P. falciparum Dd2 Cytb G131S; assay: SYBR Green ABS proliferation assay, NCGC00374598 selected clone C11; format: cell-based, Plasmodium falciparum; conditions: Plasmodium falciparum
Procedure, shortened: as §1

[11] = test system: P. falciparum Dd2 Cytb F123L; assay: SYBR Green ABS proliferation assay, NCGC00473217 selected clone G08; format: cell-based, Plasmodium falciparum; conditions: Plasmodium falciparum, DD2, NCGC00473217 selected clone G08; highest concentration 29 µM; read-out: AC50 [μM], Cytb F123L (converted)
Procedure, shortened: as §1

[12] = Rat liver microsomal stability (RLMS); conditions: rat, rat liver microsomes
Method: as §2

[13] = approximate value in μM, read-out: AC50 [μM], Dd2-B2 (parental line) (converted)
[14] = DD2, NCGC00374598 selected clone C11, read-out: AC50 [μM], Cytb G131S (converted)
[15] = WT Dd2-B2, read-out: AC50 Log[M] ± SD, Dd2-B2 (parental line) (converted)

Sequence of Firefly luciferase (Fluc, EC 1.13.12.7) (P08659 whole entry): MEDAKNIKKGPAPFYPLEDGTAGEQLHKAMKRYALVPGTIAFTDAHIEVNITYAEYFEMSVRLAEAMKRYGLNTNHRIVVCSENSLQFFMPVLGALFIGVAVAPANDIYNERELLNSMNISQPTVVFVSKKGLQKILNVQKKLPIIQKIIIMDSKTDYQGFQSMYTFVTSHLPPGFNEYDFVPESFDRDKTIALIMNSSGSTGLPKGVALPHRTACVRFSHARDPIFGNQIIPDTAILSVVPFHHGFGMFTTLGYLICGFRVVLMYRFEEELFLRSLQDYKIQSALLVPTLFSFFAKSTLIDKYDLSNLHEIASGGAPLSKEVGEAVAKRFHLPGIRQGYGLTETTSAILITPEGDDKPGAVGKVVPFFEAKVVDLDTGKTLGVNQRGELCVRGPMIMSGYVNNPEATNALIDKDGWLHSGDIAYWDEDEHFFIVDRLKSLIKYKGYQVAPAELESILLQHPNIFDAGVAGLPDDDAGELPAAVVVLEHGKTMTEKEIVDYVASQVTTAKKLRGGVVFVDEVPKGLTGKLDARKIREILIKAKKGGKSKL

AC50 [1]: 0.0171 µM
Structure (SMILES): COc1cc(SC)ccc1C(=O)Nc1nc2ccccc2[nH]1 [MLS001172173-01]
CC50 at 48 h (in vitro [2]): 19.3 µM

AC50 [1]: 6.81 µM
Structure (SMILES): Cn1c(/N=N/c2ccccc2)nc2ccccc21 [MLS000700530-01]
AC50 [3]: 0.841 µM | CC50 at 48 h (in vitro [2]): 12.2 µM | viability at 48 h, 1 µM (in vitro [4]): 91% | viability at 48 h, 3 µM (in vitro [4]): 70%

Structure (SMILES): CCCc1ccc(C(=O)NC(=O)c2ccccc2O)cc1 [MLS000850457-01]
AC50 [1]: 5.41 µM | Max Resp (signal direction of the dose response) ([5]; Method 2, Decrease = decreasing P. berghei viability with dose, Increase = increasing signal, Inactive = no dose response): Decrease | AC50 ([5]; Hill fit, 50% of maximum activity response, read-out: AC50): 0.282 µM | AC50 ([5]; log10 of molar AC50 from Hill fit, read-out: Log AC50 (converted)): 0.282 µM | AC50 [3]: 1.06 µM | viability at 48 h, 1 µM (in vitro [4]): 101% | viability at 48 h, 3 µM (in vitro [4]): 94%

AC50 [1]: 6.81 µM
Structure (SMILES): O=C(O)COc1ccc(-c2nccc(-c3cccs3)n2)cc1 [MLS000331320-01]

AC50 [1]: 21.5 µM
Structure (SMILES): CCOc1ccc(NC(=O)c2ccc3c(c2)N(C)C2CCCN2C3=O)cc1 (stereo not shown) [NCGC00452128-01]

AC50 [1]: 17.1 µM | Log AC50 (M) (HepG2): -4.3643 M
Structure (SMILES): Cc1cc(N2CCN(C)CC2)nc2ccc(NC(=O)Nc3ccccc3Br)cc12 [NCGC00126483-01]
CC50 at 48 h (in vitro [6]): 43.2 µM

AC50 [1]: 8.57 µM
Structure (SMILES): O=C(COc1ccc2ccccc2c1)Nc1nccs1 [MLS000718732-01]

AC50 [1]: 19.2 µM
Structure (SMILES): N#CC(=C1CCCC1)c1nc(-c2ccccc2O)cs1 [MLS000034824-01]
AC50 [3]: 9.44 µM

Structure (SMILES): CN1C(c2ccccc2)=NS(=O)(=O)c2cc(NC(=O)c3ccc(F)s3)ccc21 [NCGC00651712]
AC50 [7]: > 29 µM | AC50 [8]: > 29 µM | solubility (Aqueous solubility): < 1 µg/mL | AC50 [9, 13]: > 29 µM | AC50 [10, 14]: > 29 µM | AC50 [11]: > 29 µM | half-life [12]: > 30 min

AC50 [1]: 9.62 µM
Structure (SMILES): NC(=NOC(=O)/C=C/c1ccc(Br)cc1)c1ccccn1 [MLS000680558-01]

AC50 [1]: 8.57 µM
Structure (SMILES): c1ccc2sc(Sc3ncnc4sccc34)nc2c1 [MLS000334432-01]
AC50 [3]: 0.944 µM

Structure (SMILES): CCCN1C(CC(C)C)=NS(=O)(=O)c2cc(NC(=O)c3ccc(Cl)cc3)ccc21 [NCGC00531775]
AC50 [7]: > 29 µM | AC50 [8]: > 29 µM | solubility (Aqueous solubility): < 1 µg/mL | AC50 [9, 15]: 1.26 µM | AC50 [9, 13]: 1.26 µM | AC50 [10, 14]: 0.2 µM | AC50 ([10]; DD2, NCGC00374598 selected clone, read-out: AC50 Log[M] ± SD, Cytb G131S (converted)): 0.2 µM | AC50 [11]: > 29 µM | half-life [12]: 4.1 min

AC50 [1]: 10.8 µM | Log AC50 (M) (HepG2): -4.8143 M
Structure (SMILES): NC(=NOC(=O)c1cccc(F)c1)c1ccccn1 [MLS001075504-01]
CC50 at 48 h (in vitro [6]): 15.3 µM

AC50 [1]: 13.6 µM
Structure (SMILES): Nc1nc(Nc2ccccc2)nc2ccccc12 [MLS000026767-01]

Structure (SMILES): CN1C(CC2CCCCC2)=NS(=O)(=O)c2cc(NC(=O)c3ccc(F)s3)ccc21 [NCGC00651709]
AC50 [7]: > 29 µM | AC50 [8]: > 29 µM | solubility (Aqueous solubility): < 1 µg/mL | AC50 [9, 15]: 1.48 µM | AC50 [9, 13]: 1.5 µM | AC50 [10, 14]: > 29 µM | AC50 [11]: > 29 µM | half-life [12]: 12.9 min

AC50 [1]: 4.82 µM
Structure (SMILES): CCc1ccc(C2=CC(c3cccc(C)c3)n3c(nc4ccccc43)N2)cc1 (stereo not shown) [NCGC00140745-01]
AC50 [3]: 15 µM

AC50 [1]: 10.8 µM
Structure (SMILES): COC(=O)c1nn(-c2ccc3c(c2)CCN3C(C)=O)cc1O [MLS000565173-01]

Structure (SMILES): CCN(CC)CCN1C(=O)c2ccccc2NC1c1ccc(N(C)C)cc1 (stereo not shown) [MLS000554078-01]
AC50 [1]: 1.92 µM | AC50 [3]: 4.22 µM

Structure (SMILES): N=c1n(N)c2ccccc2n1CC(=O)c1ccc(Br)cc1 [MLS001183984-01]
AC50 [1]: 12.1 µM | viability at 66 h (in vitro [4]): 103%

AC50 [1]: 0.0136 µM
Structure (SMILES): C/C(=N\OCc1cccc(C(=O)O)c1)c1ccc(Cl)cc1 [MLS000850591-01]
